{"source": "patent US9808448B2", "about": "“Pharmaceutical compounds and use of same in cancer and tauopathies” (THE REGENTS OF THE UNIVERSITY OF MICHIGAN, priority 2013, dated 2017)", "key": {"[1]": {"experiment": "Initial pharmacokinetics and biodistribution in CD1 mice", "type": "in vivo, mouse", "conditions": "i.v., YM-01 20 mg/kg saline, YM-08 10 mg/kg 10% DMSO/saline", "experimental": "(A) Initial pharmacokinetics and biodistribution of YM-01 and YM-08. Compounds were suspended in buffered saline (YM-01) or 10% DMSO/saline (YM-08) and injected at 20 and 10 mg/kg, respectively. YM-08 was not soluble in saline or 10% DMSO/saline at 20 mg/kg. The levels of YM-08 in the brain at 1 hr after injection could not be accurately determined because its value was outside the calibration curve. […] Results are average from data acquired from three female mice. (C) YM-08 maintains a B/P ratio of nearly 0.25 for 18 hrs.\nThe initial pharmacokinetics (PK) of YM-01 and YM-08 were tested in CD1 mice. […] After a single 6.6 mg/kg dose delivered i.v., the peak brain concentration of YM-08 was 4 μg/g (FIG. 7B) and the ratio in the brain:plasma (B/P) ratio was approximately 0.25 for 18 hrs (FIG. 7C). […] It is not yet clear how much tau levels need to be reduced to achieve therapeutic effects in disease models, but the area-under-the-curve (AUCinf) for YM-08 in the brain was 0.26 μg·hr/g and the AUCinf in plasma was 13.6 μg·hr/mL."}, "[2]": {"biological_target": "prokaryotic Hsp70 (DnaK) binding to denatured luciferase (Escherichia coli, UniProt P0A6Y8)", "sequence (P0A6Y8 whole entry)": "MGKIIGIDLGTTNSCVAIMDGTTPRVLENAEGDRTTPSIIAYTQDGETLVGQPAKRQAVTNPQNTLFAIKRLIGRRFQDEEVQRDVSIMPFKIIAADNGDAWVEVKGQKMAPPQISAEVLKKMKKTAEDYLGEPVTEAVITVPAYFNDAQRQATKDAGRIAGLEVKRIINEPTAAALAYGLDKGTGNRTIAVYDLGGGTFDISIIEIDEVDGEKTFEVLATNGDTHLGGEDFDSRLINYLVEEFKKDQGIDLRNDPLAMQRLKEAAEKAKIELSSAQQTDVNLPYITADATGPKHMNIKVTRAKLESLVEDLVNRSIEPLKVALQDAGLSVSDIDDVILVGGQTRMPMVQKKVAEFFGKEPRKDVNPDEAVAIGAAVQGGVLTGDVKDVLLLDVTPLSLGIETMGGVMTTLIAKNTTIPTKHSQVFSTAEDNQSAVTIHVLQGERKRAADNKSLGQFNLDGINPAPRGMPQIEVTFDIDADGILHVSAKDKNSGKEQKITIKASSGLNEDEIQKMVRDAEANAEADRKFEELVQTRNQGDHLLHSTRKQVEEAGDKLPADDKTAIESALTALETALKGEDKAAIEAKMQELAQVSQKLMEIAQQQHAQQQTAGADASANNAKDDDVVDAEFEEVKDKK", "experiment": "Luciferase binding assay", "type": "biochemical", "conditions": "50 μM", "experimental": "Next, the effect of chaperone functions by binding of YM-08 to Hsp70 was investigated. […] This profile is shared with other allosteric Hsp70 inhibitors. As another test of chaperone function, the effects of the compounds on the binding of Hsp70 to a misfolded protein were measured. In previous work, MKT-077 stabilized the interaction between prokaryotic Hsp70 (DnaK) and denatured luciferase. Briefly, this assay involves immobilizing unfolded luciferase in microtiter plates and measuring binding to DnaK. […] To explore whether YM-08 might also enhance binding of Hsp70 to a more physiologically relevant substrate, binding of tau to immobilized human Hsc70 was measured.\nBinding of prokaryotic Hsp70 (DnaK) to denatured luciferase was measured as previously described, in e.g., Miyata, et al., J. Biomol. Screen, 15:1211-1219 (2010). Briefly, firefly luciferase (0.2 mg/mL) was proteolyzed with trypsin and immobilized in 96-well microtiter plates. After washing, the binding of luciferase to DnaK (500 nM) was measured using an anti-DnaK antibody and HRP secondary antibody. A similar strategy was used to monitor binding of human Hsc70 to tau, as previously described in Thompson, et al., ACS Chem. Biol., 7:1677-1686 (2012)."}, "[3]": {"tested_on": "human 4R0N tau in HeLaC3 cells", "experiment": "Tau levels in HeLaC3 cells by Western blot", "type": "cell-based", "experimental": "To determine whether YM-08 might also accelerated tau degradation, HeLaC3 cells, which stably over-express human 4R0N tau, were treated with compound. After 24 hours, the levels of phosphorylated (p396/404) tau and total tau were measured by Western blot. […] This cellular activity is not as dramatic as that of MKT-077, which reduced tau levels by >80% at 30 μM (FIG. 4D); however, reducing tau by only about 50% is predicted to provide benefits in some AD models."}, "[4]": {"tested_on": "stress inducible Hsp72 (HSPA1)", "experiment": "Stress response in treated HeLaC3 cell lysates", "type": "cell-based, human"}, "human Hsc70NBD": {"biological_target": "T1, human Hsc70NBD (Homo sapiens, UniProt P11142)", "T1 construct": "made in house", "T1 sequence (P11142 2-386 limits assumed)": "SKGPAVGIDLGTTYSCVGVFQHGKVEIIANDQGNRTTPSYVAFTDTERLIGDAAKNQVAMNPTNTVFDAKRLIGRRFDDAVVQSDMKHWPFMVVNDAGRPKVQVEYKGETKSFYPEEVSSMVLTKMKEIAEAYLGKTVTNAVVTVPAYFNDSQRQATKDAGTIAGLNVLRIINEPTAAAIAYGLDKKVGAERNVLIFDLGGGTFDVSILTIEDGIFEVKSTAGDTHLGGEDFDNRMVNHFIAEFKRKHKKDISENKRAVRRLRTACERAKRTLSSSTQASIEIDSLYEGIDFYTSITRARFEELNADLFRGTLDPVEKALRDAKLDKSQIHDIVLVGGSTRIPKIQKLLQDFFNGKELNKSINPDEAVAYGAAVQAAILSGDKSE", "experiment": "Biolayer interferometry (Octet Red), Hsc70NBD", "type": "binding", "conditions": "immobilized biotinylated Hsc70NBD", "experimental": "Binding of MKT-077 analogs to immobilized Hsp70 was evaluated using a competitive ELISA. In this established assay, a biotinylated version of MKT-077 is bound to immobilized human Hsc70 (HSPA8) and potential competitors are tested for their ability to block the interaction. […] As further controls, the truncated compounds YM-02, YM-03, YM-04 and YM-07 were tested.\nBiotinylated human Hsc70NBD or full length Hsp72 were first immobilized on super streptavidin biosensors (ForteBio, 18-5057) as follows: biosensors were soaked with MG buffer (100 mM Tris base, 20 mM KCl, 6 mM MgCl2, 0.01% Triton X-100, pH 7.4) for 10 min before moving them to wells either containing 200 μL […] biotinylated proteins or […] biocytin for 60 min. The free streptavidin sites were subsequently quenched with […] biocytin for 10 min. The biosensors were washed with MG buffer for 5 min prior to beginning the binding experiments. The association and disassociation steps were carried out in MG buffer with a constant 10% DMSO concentration. All steps were performed at room temperature and with 1000 rpm rotary shaking. […] The apparent affinities of YM-08 for Hsc70NBD and Hsp72 were calculated from both equilibrium measurements and global fits of the kon and koff values, yielding similar values."}, "[5]": {"tested_on": "MCF-7, MCF-10A and MB-MDA-231 cells", "experiment": "MTT assays, three cell lines", "type": "cell-based", "conditions": "range over MCF-7, MCF-10A and MB-MDA-231 cells", "experimental": "YM-08 was tested whether it might retain the anti-cancer activity of MKT-077."}, "[6]": {"tested_on": "phospho- and total tau in brain slices from transgenic P301L tau mice (Tg4510)", "experiment": "Tau levels in transgenic brain slice cultures", "type": "cell-based, mouse", "conditions": "30 and 100 μM, 6 hours", "experimental": "YM-08 activity in a more physiological system was tested. Brain slice cultures from transgenic mice that express mutated tau were treated for 6 hours with YM-08 and the levels of total- and pS396/404 tau measured by Western blots. […] To test whether YM-08 might selectively reduce tau after microtubule disruption, brain slices were cultured from wild type mice and treated them with YM-08 plus the microtubule destabilizer, nocodazole. […] Together, these studies add to growing evidence that Hsp70 selectively identifies tau variants that are not associated with the normal microtubule network, likely minimizing their aggregation and proteotoxicity."}}, "note": "“And” between values parts separate entries of the source, which are not always exact repeats. Equal entries are not always repeated.", "data": [{"smiles": "CCn1c(=O)/c(=C2\\Sc3ccccc3N2C)s/c1=C\\c1ccccn1", "note": "[YM-08, (2Z,5E)-3-ethyl-5-(3-methylbenzo[d]thiazol-2(3H)-ylidene)-2-(pyridin-2-ylmethylene)thiazolidin-4-one]", "values": [{"measurement": "kidney distribution", "setting": "[1]; 0.16 and 1 hrs", "result": "reduced retention in the kidney"}, {"measurement": "brain penetration", "setting": "[1]; 0.16 hrs", "result": "abundant in the brain"}, {"measurement": "enhancement of DnaK binding to denatured luciferase", "setting": "[2]", "result": "about 30%"}, {"measurement": "anti-tau activity in cells", "setting": "[3]", "result": "reduced phospho (p396/404) and total tau"}, {"measurement": "decrease of pS396/404 tau level", "setting": "[3]; 30 μM, 24 hours", "result": "about 40%"}, {"measurement": "decrease of total tau level", "setting": "[3]; 30 μM, 24 hours", "result": "about 60%"}, {"measurement": "stress response (Hsp72 levels)", "setting": "[4]", "result": "did not induce a stress response"}, {"measurement": "Kd", "setting": "human Hsc70NBD", "result": "~2.3 µM and ~4 µM"}, {"measurement": "EC50", "setting": "[5]", "result": "7.8 to 10.5", "unit": "µM"}, {"measurement": "phospho-tau level", "setting": "[6]", "result": "reduced phospho-tau"}]}]}
